Experimental findings from US12139498B1, “Positive allosteric modulators of the muscarinic acetylcholine receptor M4” (Vanderbilt University, priority 2023, dated 2024) are described below.

One test addresses T1, Human M4 (Homo sapiens, UniProt P08173).
T1 sequence (P08173 1-479): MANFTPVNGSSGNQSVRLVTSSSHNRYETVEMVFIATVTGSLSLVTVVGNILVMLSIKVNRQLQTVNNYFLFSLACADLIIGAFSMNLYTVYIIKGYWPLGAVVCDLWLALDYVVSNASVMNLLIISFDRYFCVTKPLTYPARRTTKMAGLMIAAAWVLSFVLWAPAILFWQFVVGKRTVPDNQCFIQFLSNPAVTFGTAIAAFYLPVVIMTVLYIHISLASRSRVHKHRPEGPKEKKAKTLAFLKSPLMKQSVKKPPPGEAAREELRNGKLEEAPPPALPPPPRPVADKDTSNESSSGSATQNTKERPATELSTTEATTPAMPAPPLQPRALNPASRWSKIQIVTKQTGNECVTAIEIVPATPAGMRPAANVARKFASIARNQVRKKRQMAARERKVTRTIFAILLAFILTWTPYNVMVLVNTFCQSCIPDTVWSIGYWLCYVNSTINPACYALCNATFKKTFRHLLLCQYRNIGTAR
Nature of the test: M4 cell-based functional assay (calcium mobilization). Further details: expressed in transfected cells. The note with it: for Emax at 30 µM: % ACh maximum at 30 μM; for EC50: CHO-K1 hM4-Gqi5 cells, calcium flux, increase in EC20 acetylcholine response. In outline:
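CHO-K1 cells stably co-expressing hM4 and chimeric Gqi5, loaded with Fluo-4-AM (1.15 μM final, 45 min, 37° C). Compound added ~140 s before EC20 then EC80 acetylcholine; calcium flux by kinetic fluorescence (ex 480/em 530 nm), expressed as fold over basal and normalized to maximal ACh response (1 mM).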
(Calcium flux is commonly read through the fluorescence of an indicator in the cells.)

The next test deals with male Sprague-Dawley rats. Kind of test: Amphetamine-induced hyperlocomotion in rats. The note with it: 10 mg/kg p.o., amphetamine 0.25 mg/kg s.c., p<0.001.

One may read the Emax as the size of the effect at its maximum, as opposed to the concentration needed. A word on the EC50: it is the concentration giving half of the maximal effect. `Cc1cn2c(=O)n(C)nc2nc1N1CCc2nc(C3CCC3)sc2C1` [Compound 67, 7-(2-cyclobutyl-6,7-dihydrothiazolo[5,4-c]pyridin-5(4H)-yl)-2,6-dimethyl-[1,2,4]triazolo[4,3-a]pyrimidin-3(2H)-one]: at Human M4, the Emax at 30 µM was 71% and the 50% effective concentration (EC50) amounted to 4 nM.

With `Cc1c(N2CCc3nc(C4(C)CC4)sc3C2)nc2n[nH]c(=O)n2c1C` [Compound 68, 5,6-dimethyl-7-(2-(1-methylcyclopropyl)-6,7-dihydrothiazolo[5,4-c]pyridin-5(4H)-yl)-[1,2,4]triazolo[4,3-a]pyrimidin-3(2H)-one], on Human M4, the Emax at 30 µM turned out to be 97% and the EC50 came to 40 nM. `Cc1c(N2CCc3nc(C4(F)CC4)sc3C2)nc2n[nH]c(=O)n2c1C` [Compound 69, 7-(2-(1-fluorocyclopropyl)-6,7-dihydrothiazolo[5,4-c]pyridin-5(4H)-yl)-5,6-dimethyl-[1,2,4]triazolo[4,3-a]pyrimidin-3(2H)-one]: on Human M4, the Emax at 30 µM was found to be 88% and the half-maximal effective concentration (EC50) stood at 18 nM. As for `[2H]C([2H])([2H])n1nc2nc(N3CCc4nc(C5(F)CC5)sc4C3)c(C)c(C)n2c1=O` [Compound 71, 7-(2-(1-fluorocyclopropyl)-6,7-dihydrothiazolo[5,4-c]pyridin-5(4H)-yl)-5,6-dimethyl-2-(methyl-d3)-[1,2,4]triazolo[4,3-a]pyrimidin-3(2H)-one], on Human M4, the Emax at 30 µM was 83% and the EC50 is 7 nM.

Turning to `Cc1c(N2CCc3nc(C4CC4)sc3C2)nc2n[nH]c(=O)n2c1C` [Compound 72, 7-(2-cyclopropyl-6,7-dihydrothiazolo[5,4-c]pyridin-5(4H)-yl)-5,6-dimethyl-[1,2,4]triazolo[4,3-a]pyrimidin-3(2H)-one], on Human M4, the maximum response (Emax) at 30 µM stood at 91% and the EC50 was 5 nM.

In the case of `Cc1c(N2CCc3nc(C4CC4)sc3C2)nc2nn(CC3(C#N)CC3)c(=O)n2c1C` [Compound 73, 1-((7-(2-cyclopropyl-6,7-dihydrothiazolo[5,4-c]pyridin-5(4H)-yl)-5,6-dimethyl-3-oxo-[1,2,4]triazolo[4,3-a]pyrimidin-2(3H)-yl)methyl)cyclopropane-1-carbonitrile], at Human M4, the maximal effect (Emax) at 30 µM stood at 91% and the EC50 came out at 12 nM. For `Cc1c(N2CCc3nc(C4CC4)sc3C2)nc2nn(CC3CC3(F)F)c(=O)n2c1C` (centres unmarked) [Compound 74, 7-(2-cyclopropyl-6,7-dihydrothiazolo[5,4-c]pyridin-5(4H)-yl)-2-((2,2-difluorocyclopropyl)methyl)-5,6-dimethyl-[1,2,4]triazolo[4,3-a]pyrimidin-3(2H)-one], in that order: 94% and 7 nM.

Take `Cc1c(N2CCc3nc(C4CC4)sc3C2)nc2nn(CC3CC3)c(=O)n2c1C` [Compound 75, 7-(2-cyclopropyl-6,7-dihydrothiazolo[5,4-c]pyridin-5(4H)-yl)-2-(cyclopropylmethyl)-5,6-dimethyl-[1,2,4]triazolo[4,3-a]pyrimidin-3(2H)-one]: at Human M4, the maximal response (Emax) at 30 µM is 111% and the concentration giving a half-maximal response (EC50) is 15 nM.

Turning to `Cc1c(N2CCc3nc(C4CC4)sc3C2)nc2nn(CC3CC(F)(F)C3)c(=O)n2c1C` [Compound 76, 7-(2-cyclopropyl-6,7-dihydrothiazolo[5,4-c]pyridin-5(4H)-yl)-2-((3,3-difluorocyclobutyl)methyl)-5,6-dimethyl-[1,2,4]triazolo[4,3-a]pyrimidin-3(2H)-one], at Human M4, the maximal response (Emax) at 30 µM turned out to be 105% and the half-maximal effective concentration (EC50) came out at 87 nM.

Consider `Cc1c(N2CCc3nc(C4CC4)sc3C2)nc2nn(C)c(=O)n2c1C` [Compound 77, 7-(2-cyclopropyl-6,7-dihydrothiazolo[5,4-c]pyridin-5(4H)-yl)-2,5,6-trimethyl-[1,2,4]triazolo[4,3-a]pyrimidin-3(2H)-one], for which, at Human M4, the Emax at 30 µM was 121% and the EC50 came to 9 nM.

As for `Cc1c(N2CCc3nc(C4(F)CC4)sc3C2)nc2nn(CC3CC3)c(=O)n2c1C` [Compound 78, 2-(cyclopropylmethyl)-7-(2-(1-fluorocyclopropyl)-6,7-dihydrothiazolo[5,4-c]pyridin-5(4H)-yl)-5,6-dimethyl-[1,2,4]triazolo[4,3-a]pyrimidin-3(2H)-one], on Human M4, the Emax at 30 µM turned out to be 109% and the EC50 worked out at 18 nM. On to `Cc1nnc2sc(C(=O)NCc3ccc(S(=O)(=O)C(F)(F)F)cc3)c(N)c2c1C` [VU0467154, reference compound], for which, in the test with male Sprague-Dawley rats, the “percent reversal of amphetamine-induced hyperlocomotion” value was determined as 52.7%.
